In article PMC3192848 (PLoS Pathogens, 2011):

Legend:
Format in all cases: binding
[1] = target: T1, EtMIC3-MAR1b (thioredoxin-His fusion, microarray) (Eimeria tenella, UniProt B6VCV4); conditions: lipid-linked probe immobilised at 5 fmol/spot; 40 µg/ml protein precomplexed with anti-His antibodies; ambient temperature
T1 construct: gene mic3

[2] = target: T2, TgMIC1-MARR (Toxoplasma gondii, UniProt O00834); conditions: lipid-linked probe immobilised at 5 fmol/spot; 40 µg/ml protein precomplexed with anti-His antibodies; ambient temperature
T2 construct: gene MIC1

[3] = target: T3, EtMIC3-MAR1b (NMR construct) (Eimeria tenella, UniProt B6VCV4); conditions: phosphate buffer pH 5.5; sialic acid contacts L175, Y178 and HLT motif
T3 construct: gene mic3

T2 sequence (O00834 17-262): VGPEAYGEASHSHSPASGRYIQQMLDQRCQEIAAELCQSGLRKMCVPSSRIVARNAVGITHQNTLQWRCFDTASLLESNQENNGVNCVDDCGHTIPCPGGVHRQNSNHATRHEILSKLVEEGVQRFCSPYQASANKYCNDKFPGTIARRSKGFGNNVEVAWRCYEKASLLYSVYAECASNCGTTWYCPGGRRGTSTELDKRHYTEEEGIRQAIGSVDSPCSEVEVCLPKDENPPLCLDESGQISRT

Molecule	Fluorescence signal intensities / EtMIC3-MAR1b [1]	Fluorescence signal intensities / TgMIC1-MARR [2]	isotope-filtered NMR NOESY; HADDOCK structure from 9 intermolecular NOEs [3]
NeuAcα-6Galβ-4GlcNAcβ-3Galβ-4Glc-DH [compound 79]	5,570 fluorescence units		
NeuAcα-3Galß-4Glcß-Cer [compound 59]		4,327 fluorescence units	
NeuGcα-3Galß-4Glcß-Cer [compound 60]		12,526 fluorescence units	
NeuGcα-6GalNAc-AO [compound 88]		13,982 fluorescence units	
CC(=O)N[C@H]1[C@H]([C@H](O)[C@H](O)CO)O[C@@](O[C@H]2[C@@H](O)[C@@H](CO)O[C@@H](O[C@H]3[C@H](O)[C@@H](NC(C)=O)C(O)O[C@@H]3CO)[C@@H]2O)(C(=O)O)C[C@@H]1O (stereo partly drawn) [Siaα2–3Galβ1–4GlcNAc]			intermolecular NOEs
NeuAcα-3Galβ-3GlcNAcβ-3Galβ-4Glcß-C30 [compound 38]	5,423 fluorescence units	11,580 fluorescence units	
NeuGcα-3Galβ-3GlcNAcβ-3Galβ-4Glcß-C30 [compound 39]		11,075 fluorescence units	
GT1b [compound 109]	8,121 fluorescence units		
